{"source": "patent US20240271102A1", "about": "“METHODS FOR ENGINEERING AND USE OF CILIATED ORGANOIDS HAVING NATIVE-LIKE, APICAL-OUT POLARITY” (Carnegie Mellon University, priority 2021, published 2024)", "format_in_all_cases": "cell-based, human", "key": {"[1]": {"system": "apical-out airway organoids (AOAOs)", "experiment": "MUC5AC goblet cell immunofluorescence staining of apical-out airway organoids", "method": "Differentiation of airway basal cells into apical-out airway organoids: Human ABSCs (P2) were trypsinized and resuspended (5000 cells/ml) in differentiation medium ([…]™-ALI Medium) supplemented with 10 μM Y27632. 100 μL of resuspended hABSCs were placed per well in a 96-well cell-repellent microplate (GreinerBio-One, 655970). The cultures were maintained at 37° C. with 5% CO2 for 21-28 days. […]"}, "[2]": {"system": "apical-out airway organoids (AOAOs)", "experiment": "Cilia beating frequency (CBF) by kymograph analysis", "method": "Imaging the AOAO cilia beating for kymographs generation and cilia beating frequency (CBF) calculation: Mature AOAOs (day-21 to day-28 of differentiation) were transferred to a 1.5-mL Eppendorf tube and kept on ice. Cold collagen type 1 was neutralized with the neutralization solution, added to the organoids at a final concentration of 2 mg/mL, and the entire AOAO-collagen mixture was transferred to the glass bottom region of a MatTek dish. The MatTek dish containing organoids in collagen was kept on ice for additional 10 minutes until the organoids settled down to the bottom of the dish. The MatTek dish was then placed on a heat plate set to 37° C. for 10 minutes. 1 mL of differentiation medium was placed in the dish before capturing video recording of cilia beating using on a Zeiss AxioObserver Z1 microscope with a 100×, 1.45 NA objective and pco.edge 5.5 camera. The high-speed video recordings of cilia beating were preprocessed using the previously described method to smoothen noise and variations in contrast. Additionally, the Contrast Limited Adaptive Histogram Equalization (CLAHE) function in Python v. […] The normal vector with respect to the organoid surface for each region of interest was calculated. […] The peaks in the kymograph were counted and divided by the duration of the video to obtain the CBF value for the organoid. […]"}, "[3]": {"system": "apical-out airway organoids (AOAOs)", "experiment": "AOAO rotation / angular velocity of […]-embedded organoids (computer vision tracking)", "method": "© embedding of AOAOs: Mature AOAOs at day-21 to day-28 of differentiation were collected together and embedded in […]® matrices. For […]® embedding, collected AOAOs were resuspended in 40% (vol/vol) GFR-[…]® in differentiation medium, which was kept on a heat plate set to 37° C. for 10 minutes to enable effective gelation. Upon matrix gelation, differentiation medium was added to the top of the AOAO-containing gel matrices. All matrix-embedded AOAOs were maintained at 37° C. with 5% CO2. The next day, 30-second video recordings of AOAOs were captured using EVOS FL Auto 2 Imaging System. […] The distance covered by each correspondence was measured and converted to the rotational velocity (Sun et al., in 2010 IEEE Computer Society Conference on Computer Vision and Pattern Recognition, 2432-2439, 2010). […] The difference in rotational and angular velocity was quantified by calculating the mean normalized deviation of velocity (rotational and angular) from the mean (FIG. 19E) using the following equation: Treating AOAOs with Paclitaxel or EHNA for angular velocity analysis: Mature AOAOs (day-21 to day-28 of differentiation) were embedded in […]® for two days before treatment with desired chemical inhibitors of cilia motility. […]"}, "NHBE cells": {"system": "NHBE cells", "experiment": "Spheroid formation of NHBEs on U-bottom cell repellent surface", "conditions": "10 μM Y27632 in differentiation medium at initial seeding, day 1", "method": "Mucociliary differentiation of NHBEs with apical-out polarity was then carried out. Once the cells reached about 75% confluency, the medium was aspirated and cells were rinsed once with DPBS. Trypsin-EDTA (0.25%) was added and incubated at 37° C. After all the cells had lifted, complete RPMI medium was added to neutralize the trypsin. The cell suspension was transferred into a 15 mL centrifuge tube, which was then centrifuged at 220×g for 5 minutes at room temperature. The cell pellet was resuspended to a cell density of 5000 cells/mL in differentiation medium containing 10 μM of Y27632. Aliquots (100 μL) of the cell suspension were then transferred to each well of a 96-well cell-repellent microplate. 50 μL of the media were pipetted out from each well and replaced with fresh differentiation medium every other day. Apical-out organoid formation was examined with different starting NHBE cell numbers (1000, 500, 200, 100, 50, and 20 cells per well) on a 96-well U-bottom cell repellent surface. Studies also were conducted to test whether the addition of 10 μM Y27632 into the differentiation medium for initial seeding improved cell viability and spheroid formation (FIGS. 3A-3F and 4A-4F). […] It is noted that in other experiments, however, a density of 1000 cells per well did support favorable spheroid formation."}}, "data": [{"compound": "IL-13: pro-inflammatory cytokine interleukin-13", "values": [{"measurement": "goblet cells (MUC5AC+) in Day 21 AOAOs", "setting": "[1]; IL-13 5 ng/mL in differentiation medium during the entire differentiation", "value": "massive induction of goblet cells"}, {"measurement": "goblet cells (MUC5AC expression)", "setting": "[1]; IL-13 at concentration as low as 1 ng/mL", "value": "exhibited goblet cells"}]}, {"compound": "CCCCCC[C@@H]([C@@H](C)O)n1cnc2c(N)ncnc21", "note": "(racemic) [EHNA, erythro-9-(2-hydroxy-3-nonyl)adenine]", "values": [{"measurement": "cilia beating frequency (CBF)", "setting": "[2]; 1 mM EHNA, 2 hours", "value": "inhibitory effect"}, {"measurement": "change in organoid angular velocity", "setting": "[3]; EHNA 0, 0.1, 0.3 and 1 mM, 2 hours, mature AOAOs", "value": "dose-dependent reduction in organoid angular velocity"}]}, {"compound": "C[C@@H](N)[C@H]1CC[C@H](C(=O)Nc2ccncc2)CC1", "note": "[Y27632]", "values": [{"measurement": "spheroid formation with versus without Y27632", "setting": "NHBE cells", "value": "no significant differences"}]}, {"compound": "CC(=O)O[C@H]1C(=O)[C@@]2(C)[C@H]([C@H](OC(=O)c3ccccc3)[C@]3(O)C[C@H](OC(=O)[C@H](O)[C@@H](NC(=O)c4ccccc4)c4ccccc4)C(C)=C1C3(C)C)[C@]1(OC(C)=O)CO[C@@H]1C[C@@H]2O", "note": "[paclitaxel, Paclitaxel]", "values": [{"measurement": "cilia beating frequency (CBF)", "setting": "[2]; paclitaxel 20 μM, 24 hours", "value": "dramatically reduced CBF"}, {"measurement": "organoid angular velocity over time", "setting": "[3]; paclitaxel 20 μM, monitored periodically for 24 hours", "value": "progressive reduction of organoid angular velocity"}]}]}
